Structures can show the parent of a compound that is named as a salt.

A word on the melting point: it is the temperature, or range, at which the solid turns liquid.

`COc1cc2c(cc1OC)C1=NCCN1C(/C=C(\O)c1cccnc1)=N2` (as salt: hydrochloride) [Example 1-2, (Z)-2-(8,9-Dimethoxy-2,3-dihydroimidazo[1,2-c]quinazolin-5-yl)-1-(3-pyridinyl)-ethenol hydrochloride]: the melting point was over 300 °C.

The compound `COc1c(O)ccc2c1N=C(/C=C(\O)c1cccnc1)N1CCN=C21` (as salt: hydrochloride) [Example 1-4, 5-(2-Hydroxy-2-pyridin-3-ylvinyl)-7-methoxy-2,3-dihydroimidazo[1,2-c]quinazolin-8-ol hydrochloride] returned a melting point of 245 °C.

For the compound `COc1c(OCCCC(=O)O)ccc2c1N=C(/C=C(\O)c1cccnc1)N1CCN=C21` (as salt: hydrochloride) [Example 1-7, 4-{[5-(2-Hydroxy-2-pyridin-3-ylvinyl)-7-methoxy-2,3-dihydroimidazo[1,2-c]quinazolin-8-yl]oxy}butanoic acid hydrochloride], the melting point fell in the range of 249 to 251 °C.

Turning to `O=C(NC1=Nc2ccccc2C2=NCCN12)c1cccnc1` (as salt: hydrochloride) [Example 2-2, N-(2,3-Dihydroimidazo[1,2-c]quinazolin-5-yl)nicotinamide hydrochloride], the melting point was 289 °C (dec.).

For `O/C(=C\c1nc2ccccc2c2nccn12)c1cccs1` (as salt: hydrochloride) [Example 3-1, (Z)-2-Imidazo[1,2-c]quinazolin-5-yl-1-(2-thienyl)ethenol], the melting point is 263 °C (dec.).

For the compound `O=C(Nc1nc2ccccc2c2nccn12)c1cccnc1` (as salt: hydrochloride) [Example 4-2, N-Imidazo[1,2-c]quinazolin-5-ylnicotinamide hydrochloride], the melting point is 228 °C (dec.).

The compound `COc1ccc2c(c1OC)N=C(/C=C(\O)c1cccnc1)N1CCN=C21.Cl` [Example 1-11] displayed a melting point of 249 to 250 °C.

For the compound `COc1c(OCCO)ccc2c1N=C(/C=C(\O)c1cccnc1)N1CCN=C21.Cl` [Example 1-17], the melting point is 215 °C (dec.).

As for `COc1c(OCC(N)=O)ccc2c1N=C(/C=C(\O)c1cccnc1)N1CCN=C21.Cl` [Example 1-24], the melting point was 235 °C (dec.).

Regarding `COc1c(OCC(=O)N(C)C)ccc2c1N=C(/C=C(\O)c1cccnc1)N1CCN=C21.Cl` [Example 1-28], the melting point was 205 °C (dec.).

For `COc1c(OCC(=O)N2CCOCC2)ccc2c1N=C(/C=C(\O)c1cccnc1)N1CCN=C21.Cl` [Example 1-30], the melting point fell in the range of 240 to 241 °C.

`COc1c(C)ccc2c1N=C(/C=C(\O)c1ccc3[nH]cnc3c1)N1CCN=C21.Cl` [Example 1-35] had a melting point of 270 °C.

With `COc1ccc2c(c1OCCN1CCOCC1)N=C(/C=C(\O)c1cccnc1)N1CCN=C21.Cl` [Example 1-37], the melting point was found to be 215 °C.

In the case of `Cc1ccc2c(c1OCCN1CCOCC1)N=C(/C=C(\O)c1cccnc1)N1CCN=C21.Cl` [Example 1-40], the melting point was 256 °C (dec.).

In the case of `COc1cc(OC)c2c(c1)C1=NCCN1C(/C=C(\O)c1cccnc1)=N2.Cl` [Example 1-43], the melting point was 290 °C (dec.).

In turn, `Cc1cc(Br)c2c(c1)C1=NCCN1C(/C=C(\O)c1ccc3[nH]cnc3c1)=N2.Cl` [Example 1-48] came in with a melting point of over 285 °C.

`COc1cc2c(cc1OC)C1=NCCN1C(/C=C(\O)c1ccc3[nH]cnc3c1)=N2` [Example 1-56] gave a melting point of 212 to 215 °C.

`COc1cc2c(cc1OC)C1=NCCN1C(/C=C(\O)c1cccs1)=N2.Cl` [Example 1-59] registered a melting point of 266 to 268 °C.

In turn, `COc1cc2c(cc1OC)C1=NCCN1C(/C=C(\O)c1sc(C)nc1C)=N2.Cl` [Example 1-61] gave a melting point of 268 to 271 °C.

Turning to `COc1cc2c(c(OC)c1C)N=C(/C=C(\O)c1cccnc1)N1CCN=C21.Cl` [Example 1-63], the melting point came out at 285 °C.

The compound `COc1cc2c(c(OC)c1C)N=C(/C=C(\O)c1ccc(NC(C)=O)nc1)N1CCN=C21.Cl` [Example 1-65] registered a melting point of over 285 °C.

`COc1cc2c(c(OC)c1C)N=C(/C=C(\O)c1ccc3[nH]cnc3c1)N1CCN=C21.Cl` [Example 1-67] returned a melting point of over 285 °C.

`COc1cccc2c1N=C(/C=C(\O)c1cccnc1)N1CCN=C21.Cl` [Example 1-69] showed a melting point of 285 °C.

`Cl.O/C(=C\C1=Nc2c(Br)cccc2C2=NCCN12)c1cccnc1` [Example 1-74] registered a melting point of 246 °C.

Take `Cc1cccc2c1N=C(/C=C(\O)c1cccnc1)N1CCN=C21.Cl` [Example 1-76]: the melting point is over 290 °C.

In the case of `CC(=O)Nc1ccc(/C(O)=C/C2=Nc3c(C)cccc3C3=NCCN23)cn1.Cl` [Example 1-78], the melting point was over 285 °C.

In turn, `Cl.O/C(=C\C1=Nc2c(cccc2C(F)(F)F)C2=NCCN12)c1cccnc1` [Example 1-81] came in with a melting point of over 290 °C.

As to `Cl.O/C(=C\C1=Nc2c(OCCN3CCOCC3)cccc2C2=NCCN12)c1cccnc1` [Example 1-85], the melting point fell in the range of 261 to 262 °C.

In the case of `Cl.O/C(=C\C1=Nc2c(OCC3CC3)cccc2C2=NCCN12)c1cccnc1` [Example 1-89], the melting point was over 300 °C.

`Cl.O/C(=C\C1=Nc2cc(N3CCOCC3)ccc2C2=NCCN12)c1cccnc1` [Example 1-95] came in with a melting point of over 300 °C.

Regarding `CC(=O)Nc1ccc(/C(O)=C/C2=Nc3cc(N4CCOCC4)ccc3C3=NCCN23)cn1.Cl` [Example 1-97], the melting point was 246 °C.

Take `Cl.O/C(=C\C1=Nc2cc(N3CCOCC3)ccc2C2=NCCN12)c1cncc(O)c1` [Example 1-99]: the melting point was 312 °C (dec.).

Consider `Cl.O/C(=C\C1=Nc2cc(N3CCOCC3)ccc2C2=NCCN12)c1ccc2[nH]cnc2c1` [Example 1-101], for which the melting point was 286 °C (dec.).

Regarding `O/C(=C\C1=Nc2cc(N3CCN(Cc4ccccc4)CC3)ccc2C2=NCCN12)c1cccnc1` [Example 1-103], the melting point amounted to 257 °C.

Turning to `CC(=O)Nc1ccc(/C(O)=C/C2=Nc3cc(N4CCN(C)CC4)ccc3C3=NCCN23)cn1.Cl` [Example 1-106], the melting point is 280 °C (dec.).

`Cl.O/C(=C\C1=Nc2cc(CN3CCOCC3)ccc2C2=NCCN12)c1cccnc1` [Example 1-112] came in with a melting point of 242 °C.

Compound `CC(=O)Nc1ccc(/C(O)=C/C2=Nc3cc(CN4CCOCC4)ccc3C3=NCCN23)cn1.Cl` [Example 1-114] came in with a melting point of 260 °C.

Consider `O/C(=C\C1=Nc2cc(Cl)ccc2C2=NCCN12)c1cccnc1` [Example 1-117], for which the melting point is 280 °C (dec.).

The compound `Cc1ccc2c(c1)N=C(/C=C(\O)c1cccnc1)N1CCN=C21.Cl` [Example 1-120] returned a melting point of over 330 °C.

`COc1ccc2c(c1)C1=NCCN1C(/C=C(\O)c1cccnc1)=N2.Cl` [Example 1-127] had a melting point of over 300 °C.

With `O/C(=C\C1=Nc2ccc(Cl)cc2C2=NCCN12)c1cccnc1` [Example 1-130], the melting point is over 330 °C.

On to `Cc1ccc2c(c1)C1=NCCN1C(/C=C(\O)c1cccnc1)=N2.Cl` [Example 1-132], for which the melting point is over 290 °C.

On to `Cl.O/C(=C\C1=Nc2ccccc2C2=NCCN12)c1cccnc1` [Example 1-135], for which the melting point was 260 °C (dec.).

As for `Cc1ccc(/C(O)=C/C2=Nc3ccccc3C3=NCCN23)cn1.Cl` [Example 1-137], the melting point was over 300 °C.

Turning to `Cl.O/C(=C\C1=Nc2ccccc2C2=NCCN12)c1cnccn1` [Example 1-142], the melting point lay within 217 to 222 °C.

For the compound `Cl.O/C(=C\C1=Nc2ccccc2C2=NCCN12)c1ccco1` [Example 1-144], the melting point is over 300 °C.

With `Cl.O/C(=C\C1=Nc2ccccc2C2=NCCN12)c1cccs1` [Example 1-147], the melting point is over 300 °C.

Take `Cl.O/C(=C\C1=Nc2ccccc2C2=NCCN12)c1ccno1` [Example 1-153]: the melting point was 245 °C (dec.).

In turn, `Cl.O/C(=C\C1=Nc2ccccc2C2=NCCN12)c1ccccn1` [Example 1-174] returned a melting point of 235 to 240 °C.

As for `Cl.O/C(=C\C1=Nc2ccccc2C2=NCCN12)c1ccncc1` [Example 1-176], the melting point is 235 °C (dec.).

For the compound `Cl.O/C(=C\C1=Nc2ccccc2C2=NCCN12)c1csc2ccccc12` [Example 1-181], the melting point was over 300 °C.

`COc1c(OCc2nn[nH]n2)ccc2c1N=C(/C=C(\O)c1cccnc1)N1CCN=C21.Cl` [Example 1-197] showed a melting point of 217 to 218 °C.

Consider `Cl.O/C(=C\C1=Nc2c(CN3CCOCC3)cccc2C2=NCCN12)c1cccnc1` [Example 1-207], for which the melting point was 259 °C (dec.).

Take `CC(=O)Nc1ccc(/C(O)=C/C2=Nc3c(CN4CCOCC4)cccc3C3=NCCN23)cn1.Cl` [Example 1-209]: the melting point is over 260 °C.

For `Cc1ccc(C(=O)NC2=Nc3cc(N4CCOCC4)ccc3C3=NCCN23)cn1.Cl` [Example 2-14], the melting point was 267 °C (dec.).

Turning to `CC(=O)Nc1ccc(C(=O)NC2=Nc3cc(N4CCOCC4)ccc3C3=NCCN23)cc1` [Example 2-15], the melting point was determined as 227 °C.

On to `COc1ccc2c(c1)N=C(NC(=O)c1cccnc1)N1CCN=C21.Cl` [Example 2-21], for which the melting point was 292 °C (dec.).

On to `COc1ccc2c(c1)N=C(NC(=O)c1ccc(N)nc1)N1CCN=C21.Cl` [Example 2-24], for which the melting point is 273 °C (dec.).

In turn, `COc1ccc2c(c1)N=C(NC(=O)c1ccc3[nH]cnc3c1)N1CCN=C21.Cl` [Example 2-26] had a melting point of 233 °C.

`Cc1ccc2c(c1)N=C(NC(=O)c1cccnc1)N1CCN=C21.Cl` [Example 2-28] came in with a melting point of 315 °C.

For the compound `Cc1ccc2c(c1)N=C(NC(=O)c1cccs1)N1CCN=C21.Cl` [Example 2-32], the melting point is 276 °C.

Turning to `Cl.O=C(NC1=Nc2cc(Cl)ccc2C2=NCCN12)c1ccc2[nH]cnc2c1` [Example 2-40], the melting point was determined as 270 °C.

As to `COc1ccc2c(c1OC)N=C(NC(=O)c1ccc3[nH]cnc3c1)N1CCN=C21.Cl` [Example 2-50], the melting point is 278 °C (dec.).

Values taken from patent publication US7511041B2, “Fused azole-pyrimidine derivatives” (Bayer Pharmaceuticals Corporation, priority 2002, dated 2009).
